Assays:
[1] = Spectroscopic characterization of BODIPY dyes (absorption, emission, FWHM, quantum yield); type: physicochemical; details: for Abs Max / Em Max: Table 1, free dye, solvent not stated; for FWHM: Table 1, full width half maximum of emission, free dye
Description: (§1) A variety of BODIPY dyes were prepared and conjugated to polymeric dyes to prepare polymeric tandem dyes. […] The spectroscopic characteristics of particular BODIPY dyes and polymeric tandem dyes including the same were assessed. […] Further details of exemplary BODPY dyes and tandem dyes including the same are provided below in Tables 1 and 2.

[2] = Absorption and emission spectra of free narrow emission dyes in ethanol; type: physicochemical
Description: as §1

Molecule | Abs Max [1] [nm] | Em Max [1] [nm] | FWHM [1] [nm] | further results
Cc1cc(C)n2c1C=C1C=CC(CCC(=O)O)=[N+]1[B-]2(F)F [BODIPY FL] | 505 | 513 | 21 | 
CCN1\C(=C/C=C/C=C/C2=[N+](CCCCCC(=O)O)c3ccc4c(S(=O)(=O)O)cc(S(=O)(=O)O)cc4c3C2(C)C)C(C)(C)c2c1ccc1c(S(=O)(=O)[O-])cc(S(=O)(=O)O)cc21 [Cy5.5] |  |  |  | Dye Abs. max ([2]; dye in ethanol): 673 nm; Dye Em. FWHM ([2]; dye in ethanol): 42 nm; Dye Em. Max ([2]; dye in ethanol): 691 nm; Dye Stokes Shift ([2]; dye in ethanol): 18 nm
CCN1/C(=C/C=C/C=C/C2=[N+](CCCCCC(=O)O)c3ccc(S(=O)(=O)O)cc3C2(C)C)C(C)(C)c2cc(S(=O)(=O)[O-])ccc21 [Cy5] |  |  |  | Dye Abs. max ([2]; dye in ethanol): 649 nm; Dye Em. FWHM ([2]; dye in ethanol): 35 nm; Dye Em. Max ([2]; dye in ethanol): 666 nm; Dye Stokes Shift ([2]; dye in ethanol): 17 nm
CCN1C(=CC=CC=CC=CC2=[N+](CCCCCC(=O)O)c3ccc(S(=O)(=O)O)cc3C2(C)C)C(C)(C)c2cc(S(=O)(=O)[O-])ccc21 [Cy7] |  |  |  | Dye Abs. max ([2]; dye in ethanol): 752 nm; Dye Em. FWHM ([2]; dye in ethanol): 52 nm; Dye Em. Max ([2]; dye in ethanol): 776 nm; Dye Stokes Shift ([2]; dye in ethanol): 24 nm
BODIPY 581/591 | 582 | 590 | 29 | 
BODIPY 630/650 | 630 | 641 | 30 | 
BODIPY TMR | 550 | 570 | 30 | 
BODIPY TR | 590 | 620 | 35 | 
CF594 |  |  |  | Dye Abs. max ([2]; measured in DMAC): 592 nm; Dye Em. FWHM ([2]; measured in DMAC): 37 nm; Dye Em. Max ([2]; measured in DMAC): 615 nm; Dye Stokes Shift ([2]; measured in DMAC): 23 nm

Further lines, with some results ahead:

Abs Max [1] [nm] | Em Max [1] [nm] | FWHM [1] [nm] | Molecule | further results
533 | 550 | 26 | O=C(O)CCc1ccc2n1[B-](F)(F)[N+]1=C(c3ccccc3)C=CC1=C2 [BODIPY R6G] | 
650 | 665 | 37 | BODIPY 650/665 | 

— patent US20200048469A1, “POLYMERIC TANDEM DYES HAVING PENDANT NARROW EMISSION ACCEPTOR” (Becton, Dickinson and Company, priority 2018, published 2020)
